One test deals with T1, Sec61α (Homo sapiens, UniProt P61619).
T1 construct: enabling a biotin analogue of ipomoeassin F to pull down Sec61α from live cells; endogenous in cells; host or cells: MDA-MB-231
Description: Live cell-based biotin affinity pulldown in MDA-MB-231 cells. The settings on record: live MDA-MB-231 cells. In kind it is binding. Here is the method: Activity Based Protein Profiling
MDA-MB-231 cells were seeded in five groups of 6 cm petri dishes with 3 ml DMEM high glucose culture and incubated at 37 °C and 5% CO2 until 90% confluency. […]
After 1 h incubation at 37 °C […]
and 5% CO2, the cells were harvested by scraping and washed with cold PBS for 3 times. The cells were then lysed in 100 µl of lysis buffer 1 (50 mM Hepes, pH 9.0, 100 mM NaCl, 10% glycerol, 5 mM MgCl2, 1 mM CaCl2, 0.2% NP40, 1x protease inhibitor) using ultrasound sonication. The supernatant of each group was collected after centrifugation at 21,100 g and 4 °C for 10 min, and the protein concentration was quantified with a BCA kit. 10% SDS was then added into protein solution to make a final SDS concentration of 0.4%, and the solution was incubated at 95 °C for 5 min. […]
According to the experimental needs, MDA-MB-231 cells were seeded into 3-7 groups of 15-cm tissue-culture dishes and incubated at 37 °C and 5% CO2 until 90% confluency. […] The supernatant of each group was collected after centrifugation at 4 °C and 21,100 g for 10 min, and the protein concentration was quantified with the BCA kit. […]
rotation. […] The other part was analyzed by Western blotting, in which proteins on the nitrocellulose membrane were visualized by either fluorescently labeled streptavidin or an anti-Sec61α antibody. […]

The subject of another test is HEK T86M. Description: Alamar Blue viability, HEK293 expressing Sec61α T86M. The settings on record: read-out: cell viability IC50. In kind it is cell-based, human. Here is the method: AlamarBlue Cytotoxicity Assay […]
HCT116 and HEK293T. Viable cells were counted using an automated cell counter (BioRad TC20) before each experiment. Experiments were performed either in quadruplicate or duplicate sets. First 100µ l of HCT116 or HEK293T cells at a density of 25,000 cells/m l was seeded in black wall, clear bottom, 96-well plates (2500 cells/well) (Viewplate-96 Perkin Elmer). HEK293 FRT Trex cells were seeded in complete medium supplemented to 1 μg/ml Doxycycline to induce expression of Sec61a constructs. Cells were then incubated at 37 °C and 5% CO2 for 24 h. The compounds were dissolved in DMSO to make drug stocks (10 mM). The stock solutions were diluted with the complete DMEM or McCoy’s 5A culture media supplemented with DMSO to make a series of gradient fresh working solutions at equal DMSO percentage immediately prior to each test. Subsequently, the cells were treated with 25 μl of the freshly made gradient in a total volume of 125 μl/well for 72 h. After that, the media were supplemented with 10% of AlamarBlue (resazurin) stock solution. The plate was then incubated at 37 °C and 5% CO2 for another 4 h. Emission of each well at 620 nm was detected by a microplate reader (Perkin Elmer EnSpire) at excitation 580 nm. The percentage of viability compared to the negative control (DMSO -treated cells) was determined. […]
In general terms: Alamar Blue is a resazurin reagent that responds to reducing activity.

The structures appear in SMILES notation. Where two headings read alike, the source gives them in different places.

The source of these data is paper PMC6627486, “Ipomoeassin F Binds Sec61α to Inhibit Protein Translocation” (Journal of the American Chemical Society, 2019).

T1 sequence (P60468 whole entry): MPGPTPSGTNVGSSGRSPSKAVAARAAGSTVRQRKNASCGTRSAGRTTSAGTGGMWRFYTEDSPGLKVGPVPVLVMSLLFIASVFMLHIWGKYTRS
T1 sequence (P60059 whole entry, further chain): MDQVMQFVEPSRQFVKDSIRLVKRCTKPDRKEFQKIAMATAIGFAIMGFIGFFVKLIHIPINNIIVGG
T1 sequence (P61619 whole entry): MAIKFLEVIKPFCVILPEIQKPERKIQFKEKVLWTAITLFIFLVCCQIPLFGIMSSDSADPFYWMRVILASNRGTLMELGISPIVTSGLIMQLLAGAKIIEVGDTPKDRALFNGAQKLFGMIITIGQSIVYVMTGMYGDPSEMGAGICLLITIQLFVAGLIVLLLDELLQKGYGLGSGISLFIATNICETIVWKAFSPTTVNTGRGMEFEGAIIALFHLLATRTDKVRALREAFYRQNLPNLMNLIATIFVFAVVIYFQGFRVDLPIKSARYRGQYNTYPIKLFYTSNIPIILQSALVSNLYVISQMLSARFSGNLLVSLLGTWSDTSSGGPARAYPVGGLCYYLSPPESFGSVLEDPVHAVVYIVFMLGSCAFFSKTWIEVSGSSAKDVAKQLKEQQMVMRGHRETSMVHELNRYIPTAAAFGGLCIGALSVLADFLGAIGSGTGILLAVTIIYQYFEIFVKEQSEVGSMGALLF

Consider `C/C=C(\C)C(=O)O[C@H]1[C@H](OC(=O)/C=C/c2ccc(OCc3cn(CCOCCOCCOCCNC(=O)CCCC[C@@H]4SC[C@@H]5NC(=O)N[C@@H]54)nn3)cc2)[C@@H](O)[C@@H]2O[C@H]3[C@H](O[C@@H](CCCCC)CCCCCCC(=O)CCC(=O)OC[C@H]1O2)O[C@H](C)[C@H](OC(C)=O)[C@@H]3O` [compound 5], for which the “recovery of ∼40 kDa protein (Sec61α) by biotin probe in streptavidin pulldown” value at Sec61α (9 at 500 nM) is listed as “no proteins were selectively enriched”.

Take `CC(=C\C=C\C(C)=C\[C@H](O)[C@@H](O)C[C@H](C)O)/C=C(C)/C=C/C(=O)O[C@H]1CCCC(=O)O[C@@H]([C@@H](C)C/C(C)=C/[C@@H](C)[C@H](O)C[C@@H](C)O)C/C=C(\C)C[C@@H]1C` [mycolactone, reference compound]: in the test with HEK T86M (72 h), the IC50 (commonly the concentration that inhibits the measured activity by half) worked out at 2470 nM.

For `C/C=C(\C)C(=O)O[C@@H]1[C@@H](O)[C@@H]2O[C@H]3[C@H](O[C@@H](CCCCC)CCCCCCC(=O)CCC(=O)OC[C@@H](O2)[C@H]1OC(=O)/C=C/c1ccccc1)O[C@H](C)[C@H](OC(C)=O)[C@@H]3O` [ipomoeassin F], the half-maximal inhibitory concentration (IC50) with HEK T86M (Homo sapiens, HEK293, 72 h) stood at 13.5 ± 0.6 nM. Moreover, the “competition with probe 7 in pulldown of ∼40 kDa protein” value at Sec61α (10 nM 7 + 50 nM ipomoeassin F, 20 nM 7 + 1 μM 8) is “outcompeted by a 5-fold excess”.
